Where “and” joins values, the source holds several entries; their conditions need not be identical. Identical values can stand only once. Like-named read-outs stand apart in the source and are kept apart here.
Columns and labels:
P. falciparum line B11 = assay: Parasite growth assay, wild-type B11 line; format: cell-based; conditions: Plasmodium falciparum, 96 h, read-out: EC50 parasite growth, B11 line
From the text: The DiCre-expressing P. falciparum line B11 (derived from a 3D7 background) has been described in full previously.[45] […] Briefly, the B11 line was first modified by the incorporation into the genomic Pfs47 locus of a cassette for constitutive expression of a TetR-DOZI fusion protein. The 3’ flanking region of the SUB1 gene was then modified by incorporation of 10 Tet repressor-binding aptamers, following by limiting dilution cloning to obtain a genetically homogenous line called 1AC5. […] Complete details of the characterization of this parasite line will be provided in a separate manuscript.
(§1) The effects of test compounds on in vitro growth of the B11 and 1AC5 P. falciparum lines was determined by flow cytometry as described previously.[48] Briefly, synchronous ring-stage parasites at 0.1% parasitaemia and 2% haematocrit were dispensed into flat-bottomed 96-well culture plates (200 ul per well) each containing 1 ul of appropriate serial dilutions of boronic acid or control antimalarial compounds in DMSO. Control wells contained DMSO only. Following incubation in sealed, humidified gassed chambers at 37°C for 96 h to allow the parasites to undergo two entire cycles of erythrocytic growth, cells were fixed, stained with SYBR green and analysed by flow cytometry on a BD FACSVerse™ using BD FACSuite™ software. Data were analysed using FlowJo software. EC50 values and statistical data were determined from dose-response curves generated using GraphPad Prism 10 (GraphPad Software).

[1] = target: T1, human 20S proteasome (H20S), chymotrypsin-like β5 activity (Homo sapiens, UniProt P20618+P28074); assay: Human 20S proteasome kinetic assay (chymotrypsin-like β5 activity); format: biochemical; conditions: purified human 20S proteasome, β5 activity, substrate LLVY-R110, fluorescence; duplicate; read-out: IC50, nM H20S inhibition
T1 construct: variant as stated: H20S
Description: (§2) The fluorescent Proteasome substrate LLVY-R110 (ex: 490 nm, Em:525 nm) (#MAK172, Sigma-Aldrich) was used to measure the chymotrypsin-like activity (β5) of the human 20S proteasome and was prepared according to the activity assay kit instructions. Cleavage of this peptide generated intense green fluorescence due to the R110 group and was monitored at 520-530 nm with excitation at 480-500 nm. The purified human 20S proteasome (BML-PW8720-0050, EnzoSciences), stored at 1mg/ml in 20 mM Tris-HCl pH 7.2, 1mM EDTA, 1mM DTT 1mM NaN3, 50% glycerol was diluted in TRIS-buffered saline (TBS, pH 7.4) to an intermediate concentration of 0.44 μM. […] The reactions were performed in white 96-well fluorescent microtiter-plate format (Nunc). The Substrate solution was added first (100 μl), followed by 1 μl of the inhibitor (50 μM intermediate stock) and 1 μl of the H20S proteasome at 0.44 μM. The IC50s were determined for a selection of potent PfSUB1 inhibitors. After sequential dilution of the inhibitors in 100% DMSO, 1 μl of each dilution was used in a 100 μl reaction containing the fluorescent substrate. The reaction was initiated by the addition of 1 μl of the 20S proteasome intermediate stock solution. The fluorescence increase was monitored using a SpectraMax M5e plate reader and SoftMax Pro-6.3 software Measure activity on a plate reader (ex: 490 nm, Em: 525 nm) with the photomultiplier tube (PMT) set to medium with readings every 3 min for one hour. All measurements were done in duplicate. The progress curves were plotted within GraphPad Prism 9.5.0.

HepG2 cells = assay: Mammalian cell cytotoxicity assay (resazurin); format: cell-based; conditions: for CC50 (concentration that reduced cell viability by 50%): HepG2, 48 h treatment, resazurin, triplicate, tested up to 30 μM (1a), 200 μM (4c), 150 μM (tipifarnib)
Description: HepG2 cells were cultured in Dulbecco’s Modified Eagle Medium with F12 GlutaMAX (DMEM/F12 GlutaMAX) (Gibco) supplemented with 10% (v/v) heat-inactivated foetal calf serum (FCS), 1% L-glutamine and 1% penicillin-streptomycin (10,000 U/ml), and maintained in a humidified 5% CO2 incubator at 37°C. The culture medium was changed every 2-3 days and cells were passaged when a confluency of 75-80% was reached. At passage 2 or above, HepG2 cells were harvested using 0.25% trypsin-0.53 mM EDTA (Gibco). Cell counts and cell viability were determined by an automated cell counting machine (vi-CELL, Beckman) and seeded at a density of 1x10^4-5x10^5 cells per well in a transparent flat-bottom 96-well plate (Corning), and maintained in a humidified 5% CO2 incubator at 37°C. […] As a vehicle control, 1% DMSO was used. After 48 hs, media was removed and replaced with 100 μl media containing 10% resazurin solution (Invitrogen) and incubated for 4 h at 37°C in 5% CO2. After 4 h, the solution was transferred to an opaque 96-well plate (Corning) to measure reduction of resazurin to resorufin using a SpectraMax M5 microplate reader (Molecular Devices LLC) (ex. 560 nm, em. 590 nm). Cells without treatment compounds were used to determine 100% viability. Cell viability was determined by measuring fluorescence as a % of solvent control. Concentration viability response curves, CC50 values, mean CC50 value and standard error were generated using GraphPad Prism 10 (GraphPad Software).

[2] = tested on: P. falciparum line 1AC5 (8-10-fold reduced PfSUB1); assay: Parasite growth assay, PfSUB1 knock-down 1AC5 line; format: cell-based, Plasmodium falciparum; conditions: for EC50: Plasmodium falciparum, 96 h, read-out: EC50 parasite growth, 1AC5 line
From the text: The DiCre-expressing P. falciparum line B11 (derived from a 3D7 background) has been described in full previously.[45] To generate a mutant line selectively expressing reduced levels of PfSUB1, we exploited the anhydrotetracycline (aTc)-inducible TetR aptamer system described by Niles and colleagues[46] and subsequently adapted by Rajaram et al.[47] Briefly, the B11 line was first modified by the incorporation into the genomic Pfs47 locus of a cassette for constitutive expression of a TetR-DOZI fusion protein. The 3’ flanking region of the SUB1 gene was then modified by incorporation of 10 Tet repressor-binding aptamers, following by limiting dilution cloning to obtain a genetically homogenous line called 1AC5. […] Complete details of the characterization of this parasite line will be provided in a separate manuscript.
as §1

[3] = target: T2, recombinant PfSUB1 (rPfSUB1) (Plasmodium falciparum, UniProt Q8I0V0); assay: PfSUB1 enzyme assay (recombinant PfSUB1, fluorogenic peptide substrate); format: biochemical
T2 construct: made in house
T2 sequence (Q8I0V0 218-688): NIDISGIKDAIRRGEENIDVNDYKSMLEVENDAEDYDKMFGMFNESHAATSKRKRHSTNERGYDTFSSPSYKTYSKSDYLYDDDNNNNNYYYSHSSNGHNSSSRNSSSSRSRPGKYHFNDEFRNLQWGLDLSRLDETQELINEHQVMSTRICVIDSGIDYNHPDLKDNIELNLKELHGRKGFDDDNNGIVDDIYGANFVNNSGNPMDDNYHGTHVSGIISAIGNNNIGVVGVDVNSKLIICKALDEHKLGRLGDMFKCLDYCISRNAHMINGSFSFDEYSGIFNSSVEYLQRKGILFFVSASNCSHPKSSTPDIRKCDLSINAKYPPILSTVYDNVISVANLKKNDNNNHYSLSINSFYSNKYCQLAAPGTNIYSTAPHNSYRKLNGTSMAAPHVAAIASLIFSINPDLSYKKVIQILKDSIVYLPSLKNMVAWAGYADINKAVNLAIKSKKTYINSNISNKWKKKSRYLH
Description: The proteolytic activity of rPfSUB1 was monitored by the cleavage of the fluorogenic peptidic substrate SERA4st1F-6R12 (Ac-[…]-OH) and has been described previously.[28] Briefly, chymotrypsin treated rPfSUB1 (expressed and purified as described before […] was stored at −80 °C as a 228 U/mL stock in 20 mM Tris−HCl pH 8.2, 150 mM NaCl, 10% glycerol, and diluted for use (1:500) in reaction buffer (20 mM Tris−HCl pH 8.2, 150 mM NaCl, 12 mM CaCl2, 25 mM CHAPS). Peptidic boronic acid inhibitors were dissolved in 100% DMSO at 20 mM, then further diluted in DMSO to generate stock solutions ranging from 500 to 0.01 μM and then used diluted 1:100 in the enzyme reactions. All reactions were performed in wells of white 96-well microwell plates (Nunc); 50 μL diluted rPfSUB1 was preincubated for 5 min with 1 μL each of the serially diluted boronic acid inhibitors, followed by addition of 50 μL substrate solution (0.1 μM final). Subsequent fluorescence increase was continuously monitored using a SpectraMax M5e plate reader and SoftMax Pro-6.3 software, with readings taken every 3 min for 60 min using excitation and emission values of 552 and 580 nm, respectively. […] All experiments were performed in duplicate.

[4] = tested on: human 20S proteasome (H20S), chymotrypsin-like β5 activity; assay: Human 20S proteasome kinetic assay (chymotrypsin-like β5 activity); format: biochemical; conditions: PfSUB1 vs H20S inhibition
Description: as §2

[5] = 2 erythrocytic cycles, SYBR green flow cytometry, triplicate, 95% confidence interval in parentheses

SMILES	EC50 (P. falciparum line B11; [5])	IC50 [1]	CC50 (concentration that reduced cell viability by 50%) (HepG2 cells)	EC50 [2]	further results
CC(=O)N[C@H](C(=O)N[C@H](C(=O)NCC(=O)N[C@@H](C)B(O)O)C(C)C)C1CCCC1 [1a]	150 nM	32.8 ± 1.7 nM	11000 nM	130 nM	–
CC[C@H](C)[C@H](NC(=O)[C@@H](NC(=O)c1cccc(-c2ccccc2)n1)C1CCCC1)C(=O)NCC(=O)N[C@H]1CCC(=O)OB1O [4b, N-((S)-1-cyclopentyl-2-(((2S,3S)-1-((2-(((R)-2-hydroxy-6-oxo-1,2-oxaborinan-3-yl)amino)-2-oxoethyl)amino)-3-methyl-1-oxopentan-2-yl)amino)-2-oxoethyl)-6-phenylpicolinamide]	–	160 ± 10 nM	–	–	IC50 ([3]; rPfSUB1, substrate SERA4st1F-6R12 0.1 μM, 5 min preincubation, pH 8.2, fluorescence, duplicate, read-out: IC50, nM PfSUB1 inhibition): 13 ± 0.6 nM
CC[C@H](C)[C@H](NC(=O)[C@@H](NC(=O)c1cc(C)cc(C)c1)C1CCCC1)C(=O)NCC(=O)N[C@H]1CCC(=O)OB1O [4c, N-((S)-1-cyclopentyl-2-(((2S,3S)-1-((2-(((R)-2-hydroxy-6-oxo-1,2-oxaborinan-3-yl)amino)-2-oxoethyl)amino)-3-methyl-1-oxopentan-2-yl)amino)-2-oxoethyl)-3,5-dimethylbenzamide]	2260 nM	–	296000 nM	160 nM	IC50 [3]: 15.3 ± 0.1 nM; selectivity versus H20S [4]: > 60 fold; factor by which less toxic to HepG2 than 1a (HepG2 cells; HepG2 CC50 of 4c vs 1a): 27 fold; fold higher sensitivity of 1AC5 line than of B11 line ([2]; growth inhibition, 1AC5 vs wild-type B11): 13 fold and ~ 13 fold
C[C@H]1[C@H](OC(=O)CCC(=O)O)O[C@@H]2O[C@@]3(C)CC[C@H]4[C@H](C)CC[C@@H]1[C@@]24OO3 [Artesunate, artesunate, reference compound]	3.7 nM	–	–	4.87 nM	–
CCN(CC)CCCC(C)Nc1ccnc2cc(Cl)ccc12 (stereo not drawn) [CQ, chloroquine, reference compound]	–	–	–	5.74 nM	EC50 (P. falciparum line B11): 5.36 nM
Cn1cncc1[C@@](N)(c1ccc(Cl)cc1)c1ccc2c(c1)c(-c1cccc(Cl)c1)cc(=O)n2C [Tipifarnib, reference compound]	–	–	30000 nM	–	–
